# Like-named read-outs stand apart in the source and are kept apart here.
# Key:
# [1] = tested on: neovascularization induced by bFGF; test: Subcutaneous angiogenesis in nude mice (bFGF agarose bead), disulfiram per os; type: in vivo, CD1 nude male mice
# Description: FIGS. 1A-1C show inhibition of neovascularization in nude mice by disulfiram (D). […] Bar is one mm.
# Spherical agarose beads of approximately 1 mm in diameter were formed from 4% low gelling temperature agarose (Sigma) in PBS containing b-FGF or HB-EGF as angiogenic agent. The candidate angiogenic agent (10 μg/bead) was warmed in sterile microtest tubes to 40° C. in a dry-bath for a few seconds. 10 μl of agarose solution (6% in saline, 45° C.) were then added to 5 μl of the angiogenic compound and beads were formed above ice using a 20 μl pipette tip. Beads were implanted subcutaneously 1 cm away from the incision-site as reported previously for multicellular spheroids (Abramovitch, 1995) in mice anesthetized with a single dose of 75 mg/kg ketamine+3 mg/kg xylazine (i.p.). Experiments were carried out for 4 days in CD1 nude male mice. Each day one ml of aqueous solutions with or without 0.1-0.25 mM (25-60 μg) disulfiram was introduced per os to the mice using a feeding needle. Treatment was for three days starting from the day of bead implantation until one day before termination. Experiments were done in quadruplicates and repeated three times.
# Agarose beads containing the angiogenic factor bFGF (10 μg/bead) were implanted subcutaneously into CD1 nude mice as described in section (d) of "Materials and Methods" above. […]
# [2] = tested on: bovine capillary endothelial cells (BCE); test: DNA synthesis (3H-thymidine incorporation) in BCE cells; type: cell-based
# Description: Brain bovine capillary endothelial cells (BCE) and bovine vascular smooth muscle cells (BSMC), kindly provided by Prof. Israel Vlodavsky (Hadassah Medical School, Jerusalem, Israel), were cultured at 37° C. in low glucose DMEM (1 g/liter) supplemented with 10% calf serum (HyClone, Logan, Utah, U.S.A.), a serum-free supplement: biogro-1 (Beth Haemek, Israel) and GPS.
# Bovine capillary endothelial cells (BCE) and bovine aortic BSMC were plated in 24-well plates (6000 cells per well) in 500 μl DMEM medium supplemented with 10% Colorado calf serum (CCS) (GIBCO, USA) and GPS. After 24 hours, medium was changed to starvation medium (2% CCS, 0.5% BSA, GPS) for 24 hours. ^3 H-methyl-thymidine (5 μCi/ml) was added for the last 6 hours. DNA synthesis assays were performed as described above, in triplicates. DNA synthesis assays in BALB/MK keratinocytes were performed as previously described (Marikovsky, 1995).-DNA synthesis assays were performed in triplicates.
# (§1) Disulfiram was prepared in 0.1 mM stock solutions in DMSO. Control samples were incubated with the appropriate concentration of DMSO. Inhibition was calculated as percentage of DNA synthesis of control.
# (§2) To determine whether disulfiram acts directly on endothelial cells rather than on accessory cells such as macrophages and mast cells that can be responsible for the development of an angiogenic response in vivo, the effect of the drug on the growth of BCE cells was examined in vitro as described in section (c) of "Materials and Methods" above. DNA synthesis in BCE cells was measured in presence of increasing concentrations of disulfiram incubated for 24 hours with the cells. […] Maximal inhibitory activity (80%) for BSMC was at 0.5-1 μM disulfiram, while maximal inhibitory activity for C6 glioma cells or BALB/MK keratinocytes was at concentrations 10 fold higher (2-3 μM) than those for endothelial cells (0.2-0.5 μM).
# (§3) To examine the time course of the effect of disulfiram and whether the effect was reversible, cells were incubated with disulfiram for various periods of time (1, 2, 4 and 24 hours), then washed away and DNA synthesis was determined. One to 4 hours of exposure to disulfiram were enough to induce maximal inhibitory effect at concentrations ranging from 0.5 μM for BCE cells (FIG. 3A) to 5 μM for BALB/MK keratinocytes (FIG. 3C) and C6 glioma cells (FIG. 3D). […] BSMC were less sensitive as far as time course is concerned when incubated with 1 μM disulfiram. Following 4 hours of incubation with 1 μM disulfiram, DNA synthesis inhibition in BSMC reached only 50% (FIG. 3B). The data shown here indicate that the damage for capillary endothelial cells, following a short incubation of 1 to 2 hours, was maximal and that, at least in a time scale of 24 hours, this damage was non-reversible.
# C6 rat glioma cells = test: DNA synthesis (3H-thymidine incorporation) in C6 rat glioma cells; type: cell-based; conditions: for IC (maximal): Rattus norvegicus
# Description: C6 rat glioma cells were routinely cultured in DMEM supplemented with 5% FCS (Biological Industries, Israel), GPS (100 U/ml penicillin, […] streptomycin (Biological Industries, Israel) and 2 mM glutamine (Biolab Ltd. Israel)) and 125 μg/ml fungizone (Biolab Ltd, Israel).
# C6 rat glioma cells were plated in 96-well plates (Nunc, Denmark) (5000 cells per well) in DMEM with 5% FCS. After 6 hours the cells were rinsed and incubated for 48 hours in serum free medium. 5% FCS or growth factors were then added to the cells for 24 hours (triplicates). ^3 H-methyl-thymidine (5μCi/ml) (Rotem Ind. Ltd., Israel) was added to the cells for the last 14 hours. The cells were rinsed with 100 μl methanol for 10 minutes, followed by 200 μl 5% trichloroacetic acid, and then rinsed and lysed with 150 μl 0.3M NaOH. Radioactive thymidine incorporated into the DNA was determined for 1 min with 3 ml scintillation liquid (ULTIMA GOLD Packard) in a β-counter. DNA synthesis assays were performed in triplicates.
# as §1, §2
# as §3, with “The data shown here indicate that the damage for capillary endothelial cells, following a short incubation of 1 to 2 hours, was maximal and that, at least in a time scale of 24 hours, this damage was non-reversible.” left out
# endothelial cells = test: Cell rounding, capillary endothelial cells; type: cell-based, bovine
# Description: Capillary endothelial cells were grown during 48 hours to 40-50% confluency and disulfiram was then added to the cells for 20 hours as described in section (g) of "Materials and Methods" above. […] The abundance of apoptotic cells was dose-dependent.
# [3] = cited from earlier work
# superoxide dismutase = conditions: in vivo; cited from earlier work
# murine leukemia = conditions: 3 mg/mouse; cited from earlier work
# normal mice = conditions: cited from earlier work
smiles,measurement,setting,value
"CCN(CC)C(=S)SSC(=S)N(CC)CC [disulfiram, Bis(diethylthiocarbamoyl) disulfide]",inhibition of neovascularization induced by bFGF inside and around the bead,"[1]; 60 μg/mouse systemically, 4 days after implantation",inhibited almost completely
same,angiogenesis around the beads containing bFGF,"[1]; 25-60 μg/mouse/day per os, 3 days (1 ml of 0.1-0.25 mM)",clearly inhibited
same,inhibition of DNA synthesis in BCE cells (in words),"[2]; 0.1-0.5 μM, 24 hours",inhibit DNA synthesis in BCE cells in a dose dependent manner
same,reversibility of damage for capillary endothelial cells,"[2]; 1 to 2 hours incubation, time scale of 24 hours",non-reversible
same,concentration used in vitro for endothelial cells (inhibition of growth),[2]; BCE,0.1 to 0.2 µM
same,"inhibition of DNA synthesis, short incubation (in words)","[2]; BCE, 0.5 μM, 1-2 hours of incubation",near maximal inhibition of DNA synthesis
same,persistence of inhibitory effect after short exposure,"[2]; BCE, 24 hours following short exposure",inhibitory effect seemed to be maintained
same,IC (maximal),"[2]; Bos taurus, Endothelial cell, BCE (endothelial cells), 24 hours, read-out: concentration of maximal inhibitory activity (DNA synthesis)",0.2 to 0.5 µM
same,IC (maximal),"[2]; Bos taurus, Endothelial cell, BCE, 1 to 4 hours of exposure, washed, read-out: concentration inducing maximal inhibitory effect on DNA synthesis, short exposure",0.5 µM
same,IC100,"[2]; Bos taurus, Endothelial cell, BCE, 24 hours, read-out: concentration of complete inhibition of DNA synthesis",0.5 µM
same,"maximal inhibitory concentration relative to endothelial cells, fold higher",C6 rat glioma cells; C6 glioma vs endothelial cells (0.2-0.5 μM),10 fold
same,persistence of inhibitory effect after short exposure,"C6 rat glioma cells; C6 glioma, 24 hours following short exposure",inhibitory effect seemed to be maintained
same,IC (maximal),"C6 rat glioma cells; C6 glioma cells, read-out: concentration of maximal inhibitory activity (DNA synthesis)",2 to 3 µM
same,IC (maximal),"C6 rat glioma cells; C6 glioma, 1 to 4 hours of exposure, washed, read-out: concentration inducing maximal inhibitory effect on DNA synthesis, short exposure",5 µM
same,cell rounding,endothelial cells,quickly became rounded
same,solubility in water,[3],soluble in water
same,"solubility in methanol, acetone or chloroform",[3]; hydrophobic solutions,solubilizes better
same,inhibition of superoxide dismutase,superoxide dismutase,inhibited superoxide dismutase
same,potentiation of nitrogen mustard (HN2) cytotoxicity,murine leukemia,potentiate
same,toxic dose,normal mice,6-10 mg/mouse/day

# Source: patent US6288110A, “Pharmaceutical compositions comprising disulfiram” (Yeda Research and Development Co Ltd., priority 1998, dated 2001)
